Tested on: HCT116 cells
Experiment: pH-dependent cellular uptake (flow cytometry, fluorescence)
Format: cell-based, human
Conditions: fluorescence and flow cytometry
Procedure: HCT116 cells were exposed to PMNs, InS-NPs and Ce6 at different pHs to verify their cellular uptake respectively. The cells were incubated for 2 h, washed, harvested, and re-suspended with DPBS. In vitro cellular uptake was quantified using a flow cytometer (Beckman, San Jose, Calif., USA). For each sample 10,000 cells (gated events) were counted, and free Ce6 fluorescence was detected with logarithmic settings (FL4; λem=670 nm). Cells were counted as positive if their fluorescence (FL4) was higher than that of cells from an untreated cell suspension. Each experiment was analyzed statistically using the CXP Analysis Program.
The tumor cellular uptake of PMNs was monitored at different pH conditions (pH 7.4 and 6.8) using a KODAK In vivo Image Station (Image Station 4000 MM; Kodak, New Haven, Conn., USA) and a flow cytometer (Beckman, San Jose, Calif., USA). HCT116 cells (1×10^5 cells/mL) were incubated with each sample for 2 h in RPMI-1640 medium (pH 7.4 or 6.8, with 1% penicillin-streptomycin) at 37° C. and then analyzed. To ameliorate photobleaching during microscope observation, a drop of anti-fade mounting solution (5% N-propyl gallate, 47.5% glycerol, and 47.5% Tris-HCl, pH 8.4) was added to the cells.

Substance: chlorin E6 [Ce6]
- cellular uptake at pH 6.8 versus pH 7.4: not affected by changes in pH
